Key:
[1] = Effective passive permeability of the compound at 100 uM at pH 7.4 after 18 hrs by UHPLC-UV based PAMPA-BBB assay; type: ADME; conditions: read-out: Peff
[2] = Effective passive permeability of the compound assessed as membrane retention at 100 uM at pH 7.4 after 18 hrs by UHPLC-UV based PAMPA-BBB assay; type: ADME; conditions: pH 7.4, 18 h
[3] = molecular target: Histone deacetylase 1/2/3 (Homo sapiens, UniProt Q13547+O15379+Q92769); type: protein assay
[4] = molecular target: T1, Protein deacetylase HDAC6 (Homo sapiens, UniProt Q9UBN7); test: Inhibition of human recombinant HDAC6 expressed in baculovirus infected insect cells using BATCP as substrate after 4 hrs by UHPLC-ESI-MS/MS analysis
T1 sequence (Q9UBN7 whole entry): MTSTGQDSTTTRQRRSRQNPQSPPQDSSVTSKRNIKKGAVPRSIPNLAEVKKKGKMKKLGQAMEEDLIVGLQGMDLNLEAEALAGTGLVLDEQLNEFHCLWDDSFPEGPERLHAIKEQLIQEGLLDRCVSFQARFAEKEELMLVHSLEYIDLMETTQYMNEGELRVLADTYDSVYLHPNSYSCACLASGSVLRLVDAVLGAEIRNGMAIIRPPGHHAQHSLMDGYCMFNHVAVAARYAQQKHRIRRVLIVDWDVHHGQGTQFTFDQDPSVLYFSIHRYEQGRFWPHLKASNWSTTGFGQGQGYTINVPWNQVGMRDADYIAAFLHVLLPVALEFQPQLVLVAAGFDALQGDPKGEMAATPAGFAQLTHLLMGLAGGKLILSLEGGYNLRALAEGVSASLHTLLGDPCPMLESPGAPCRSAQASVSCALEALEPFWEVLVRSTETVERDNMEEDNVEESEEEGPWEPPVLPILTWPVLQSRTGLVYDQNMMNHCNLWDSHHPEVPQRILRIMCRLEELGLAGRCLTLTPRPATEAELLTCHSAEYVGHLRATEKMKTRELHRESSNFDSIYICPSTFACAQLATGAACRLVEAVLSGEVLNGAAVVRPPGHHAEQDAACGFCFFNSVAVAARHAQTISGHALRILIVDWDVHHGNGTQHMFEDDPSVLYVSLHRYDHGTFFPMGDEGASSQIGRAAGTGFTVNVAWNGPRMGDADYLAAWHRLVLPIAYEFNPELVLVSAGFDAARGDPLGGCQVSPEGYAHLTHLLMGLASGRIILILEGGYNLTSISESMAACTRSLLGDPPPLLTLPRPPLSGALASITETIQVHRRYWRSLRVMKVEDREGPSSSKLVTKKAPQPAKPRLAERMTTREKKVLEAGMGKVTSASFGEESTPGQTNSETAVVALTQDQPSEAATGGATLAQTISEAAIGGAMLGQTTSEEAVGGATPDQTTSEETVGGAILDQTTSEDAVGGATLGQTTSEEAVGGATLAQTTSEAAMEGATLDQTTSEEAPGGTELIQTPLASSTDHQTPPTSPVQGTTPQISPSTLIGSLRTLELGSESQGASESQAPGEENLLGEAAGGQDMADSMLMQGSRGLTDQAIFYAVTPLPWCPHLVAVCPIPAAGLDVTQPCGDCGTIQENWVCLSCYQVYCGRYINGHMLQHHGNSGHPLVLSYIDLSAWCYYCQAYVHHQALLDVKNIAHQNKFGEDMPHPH

[5] = Inhibition of HDAC in human SHSY5Y cells using MAL as substrate after 8 hrs by UHPLC-ESI-MS/MS analysis; type: cell-based; conditions: SH-SY5Y
[6] = molecular target: T1, Protein deacetylase HDAC6; test: Inhibition of HDAC6 in human SHSY5Y cells using BATCP as substrate after 8 hrs by UHPLC-ESI-MS/MS analysis; type: cell-based, SH-SY5Y
Histone deacetylase 1 [7] = molecular target: T2, Histone deacetylase 1 (Homo sapiens, UniProt Q13547)
T2 sequence (Q13547 whole entry): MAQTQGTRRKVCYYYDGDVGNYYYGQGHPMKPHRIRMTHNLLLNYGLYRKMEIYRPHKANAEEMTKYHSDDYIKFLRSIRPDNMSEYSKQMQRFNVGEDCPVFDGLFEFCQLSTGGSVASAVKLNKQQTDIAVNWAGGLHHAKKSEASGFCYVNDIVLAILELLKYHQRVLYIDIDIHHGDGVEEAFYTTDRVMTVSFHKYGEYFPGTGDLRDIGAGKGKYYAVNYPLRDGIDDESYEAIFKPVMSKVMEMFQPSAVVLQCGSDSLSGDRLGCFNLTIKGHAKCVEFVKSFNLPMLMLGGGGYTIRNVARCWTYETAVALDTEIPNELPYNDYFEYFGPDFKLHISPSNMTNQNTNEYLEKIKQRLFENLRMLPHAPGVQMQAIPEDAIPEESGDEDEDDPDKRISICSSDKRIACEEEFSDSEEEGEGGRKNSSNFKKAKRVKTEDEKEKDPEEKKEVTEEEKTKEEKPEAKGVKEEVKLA

Histone deacetylase 1 [8] = molecular target: T2, Histone deacetylase 1; test: biochemical

| Compound | Papp at 18 h, 100 µM [1] [×10⁻⁶ cm/s] | R% [2] [%] | IC50 [3] [nM] | IC50 [4] [nM] | IC50 [5] [nM] | IC50 [6] [nM] | IC50 (Histone deacetylase 1 [7]) [nM] | IC50 (Histone deacetylase 1 [8]) [nM] |
| --- | --- | --- | --- | --- | --- | --- | --- | --- |
| CC(C)(C)OC(=O)ON(C(=O)CCCCCCC(=O)N(OC(=O)OC(C)(C)C)C(=O)OC(C)(C)C)C(=O)OC(C)(C)C | < 2 | < 1 |  |  |  |  |  |  |
| O=C(CCCCCc1ccc2c(c1)OCO2)NO | 8.7 | 6.8 | 188.1 | 36.7 | 310 | 164 | 973 | 560 |
| O=C(CCCCCCC(=O)NO)NO [SUBEROHYDROXAMIC ACID] | < 2 | < 1 |  |  |  |  |  |  |

Now from value to molecule:

| Papp at 18 h, 100 µM [1] [×10⁻⁶ cm/s] | R% [2] [%] | IC50 [3] [nM] | IC50 [4] [nM] | IC50 [5] [nM] | IC50 [6] [nM] | IC50 (Histone deacetylase 1 [7]) [nM] | IC50 (Histone deacetylase 1 [8]) [nM] | Compound |
| --- | --- | --- | --- | --- | --- | --- | --- | --- |
|  |  |  |  | 9.1 |  |  |  | CC(/C=C/C(=O)NO)=C\[C@@H](C)C(=O)c1ccc(N(C)C)cc1 [TRICHOSTATIN] |
| 6.8 | 70.8 |  |  | 122 |  |  |  | CN1CCc2c(c3ccccc3n2Cc2ccc(C(=O)NO)cc2)C1 [TUBASTATIN A] |

Reference: ChEMBL document CHEMBL3860072, “Synthesis of a selective HDAC6 inhibitor active in neuroblasts” (Bioorg Med Chem Lett, 2016)
